Measurements as given in patent publication US20140162958A1, “Copolymer-1 Composition and Methods of Use” (priority 2012, published 2014).

Key:
[1] = type: in vivo, patient (the inventor)
Procedure: A series of compositions comprising an amount of copolymer-1 and a local anesthetic were generated in order to provide for a formulation that was substantially free of Site Reactions upon injection. Briefly, the methodology involved titrating amounts of an injectable local anesthetic (bupivacaine, 0.5%) to a solution of copolymer-1 (provided as COPAXONE®, 20 mg injectable syringe). […] This percentage of local anesthetic is well below clinical dosages typically used for skin infiltration for pain control (e.g. 0.25%). The composition was stable for over 30 days both at room temperature and when refrigerated.
The composition described in Example 1 (0.2 mL of bupivacaine (at 0.5%) added to 1.0 mL COPAXONE®, 20 mg injectable syringe) was used in this Example.
The inventor, Dr. Robbins, an anesthesiologist and pain management specialist familiar with the use of local anesthetics in procedures such as spinal epidurals, has been diagnosed with multiple sclerosis and has been prescribed COPAXONE® in order to treat the disease. […] Oral pain management (Motrin) and immediate icing of the injection site were ineffective in alleviating the pain associated with the COPAXONE® injection. […]

[2] = system: 5-hydroxytryptamine (5-HT) induced plasma extravasation; settings: concentration of about 0.083%; cited from earlier work
[3] = system: experimental autoimmune encephalomyelitis (EAE); settings: in vivo; cited from earlier work
[4] = system: exacerbating-remitting form of multiple sclerosis; settings: daily injections; cited from earlier work
RRMS patients = settings: 40 mg/mL subcutaneous injection three times a week; cited from earlier work

CC(C)Cc1ccc(C(C)C(=O)O)cc1 (stereo not drawn) [Motrin]
alleviation of the pain associated with the COPAXONE injection ([1]; oral pain management): ineffective

CCCCN1CCCCC1C(=O)Nc1c(C)cccc1C (stereo not drawn) [bupivacaine]
inhibition of 5-HT induced plasma extravasation [2]: greater than 95%

copolymer-1
pain / Site Reactions associated with the treatment ([1]; human, in vivo): skin wheals, immediate pain upon injection and continuing post-injection pain
suppression of EAE [3]: suppress EAE
exacerbations and increases in disability status versus control patients [4]: fewer exacerbations and smaller increases in their disability status
primary endpoint (reducing the annualized relapse rate relative to placebo) (RRMS patients): met its primary endpoint
